Test results: publication PMC11106541, “Library screening identifies commercial drugs as potential structure correctors of abnormal apolipoprotein A-I” (Journal of Lipid Research, 2024)
Where two headings read alike, the source gives them in different places.

Key:
apoA-I[L178P] [1] = target: T1, apoA-I[L178P] (Homo sapiens, UniProt P02647, L202P); assay: ITC (also Tm shift by CD thermal denaturation, EC50 […]; TSA; ANS); type: binding
T1 construct: gene APOA1; recombinant lipid-free apoA-I (243 residues) expressed in E. coli, thioredoxin/His tag removed with 3C protease
T1 sequence (P02647 25-267 L202P): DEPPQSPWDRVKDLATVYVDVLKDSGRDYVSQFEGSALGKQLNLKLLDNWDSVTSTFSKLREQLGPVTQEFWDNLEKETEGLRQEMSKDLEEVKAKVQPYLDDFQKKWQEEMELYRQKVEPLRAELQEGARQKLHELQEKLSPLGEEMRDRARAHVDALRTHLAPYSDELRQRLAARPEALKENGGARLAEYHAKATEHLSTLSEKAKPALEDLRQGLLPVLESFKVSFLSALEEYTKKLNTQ

apoA-I[L178P] [2] = target: T1, apoA-I[L178P]; assay: as above; type: binding; remark: listed apart in the source

| EC50 (apoA-I[L178P] [1]) | SMILES | EC50 (apoA-I[L178P] [2]) |
| --- | --- | --- |
| 400 µM | CC(C)c1c(C(=O)Nc2ccccc2)c(-c2ccccc2)c(-c2ccc(F)cc2)n1CC[C@@H](O)C[C@@H](O)CC(=O)O [C8, atorvastatin] | – |
| – | C=C(c1ccc(C(=O)O)cc1)c1cc2c(cc1C)C(C)(C)CCC2(C)C [C9-p1, bexarotene] | 98 µM |
